Assay [1] can be described thus: in vitro Ca2+ titration of the esterase hydrolysate of Compound 14 in Ca2+ buffer (spectrofluorophotometer). It is filed as binding. Conditions: hydrolysate obtained by esterase treatment; buffer with adjusted Ca2+ concentration (100 mM KCl, 30 mM MOPS). Here is the method: A 100 μL PBS solution containing Compound 14 (final concentration 80 μM), Pluronic F127 (0.2%), and Esterase Pseudomonas fluorescens (0.42 units/μL) (SIGMA) was prepared and hydrolysis reaction was carried out at 37° C. To follow the time course of the reaction, a part of the sample was taken during the reaction and the fluorescence intensity in 10 mM Ca^2+ buffer was measured with a spectrofluorophotometer (JASCO, FP-6500). When the fluorescence intensity ceased to change almost completely, the reaction was stopped to obtain a hydrolysate of Compound 14.
A free Ca^2+ concentration in a buffer containing 100 mM KCl and 30 mM 3-morpholinopropanesulfonic acid (MOPS) was adjusted using a Ca-ethylene glycol tetraacetic acid (EGTA) system (0-1 μM), a Ca-nitrilotriacetic acid (NTA) system (3.2 μM-794.3 μM), an unbuffered system (CaCl2) (3.2 mM-10 mM). The adjustment of free Ca^2+ concentration in the Ca-EGTA system or in the Ca-NTA system was carried out using the following formula (1). […]
In order to evaluate the chemical characteristics of the synthesized Compound 14, a hydrolysate was obtained by esterase treatment according to the above method, and the fluorescence intensity in a buffer in which the Ca^2+ concentration was adjusted was measured with a spectrofluorophotometer.

Assay [2] relates to HEK 293T/Halo-RimZF-CAAX. Kind of assay: staining / localization in HEK 293T cells expressing HaloTag protein on the cell membrane. Conditions: 5 μM probe, Ringer's solution, 30 minutes, room temperature. It is filed as cell-based. Here is the method: (§1) HEK 293T cells (GenHunter) were cultured in Dulbecco's Modified Eagle's Medium (DMEM) (Wako) containing 10% FBS, 4 mM L-glutamine (Wako), and 1 mM sodium pyruvate (Wako) at 37° C. in an atmosphere of 5% CO2. For nerve cells, a fetus was removed from Sprague-Dawley rat on day 21 of pregnancy under anesthesia, and the hippocampus immediately extracted from the fetal brain was digested with trypsin (Invitrogen) and DNase I (Sigma) to separate nerve cells. The nerve cells were cultured on a monolayer of glial cells in a Neurobasal A medium (Invitrogen) containing 2% B-27 supplement (Invitrogen), 1 mM sodium pyruvate (Wako), 1% glutamax (Invitrogen), 1% penicillin-streptomycin mixed solution (nacalai tesque) at 37° C. in an atmosphere of 5% CO2.
Next, a DNA fragment encoding HaloTag and a DNA fragment encoding RimZF were fused by PCR. At this time, a DNA fragment expressing a fusion protein of HaloTag, RimZF, and CAAX motif was obtained by adding a DNA sequence encoding a CAAX motif of the KRas gene (KMSKDGKKKKKKSKTKC-VIM) to the primer. […]
(§2) Fluorescence images were acquired using an inverted microscope (IX-71, Olympus), an EM-CCD camera (Andor, iXon), an objective lens ([…]), and a filter set for RFP. […]

The nature of assay [3]: in situ calibration of the labeled probe in fixed, permeabilized HEK 293T/Halo-RimZF-CAAX. It is filed as cell-based. Conditions: probe labeled on HEK 293T/Halo-RimZF-CAAX, 4% PFA fixed, 20 μM digitonin. Here is the method:
(§3) HEK 293T cells were seeded in metal rings on a cover glass coated with 0.01% collagen and 25 μg/ml poly-L-lysine (nacalai tesque) 16 hours after gene transfer so that the number of cells per ring was 40,000 and cultured at 37° C. and a carbon dioxide concentration of 5%. Three and a half hours later, the extracellular fluid was replaced with Ringer's solution (5 mM HEPES, 150 mM NaCl, 4 mM KCl, 2 mM CaCl2, 1 mM MgCl2, 0.1% glucose, pH 7.2) containing a Ca^2+ probe (compound 14 or Calcium Green, AM (Invitrogen)) or a fluorescent ligand (halo TMR, halo Oregon) (final concentration 5 μM) and 0.02% Plulonic F127 and left to stand at room temperature for 30 minutes while being shielded from light. The cells labeled with compound 14 and the fluorescent ligand was then exchanged with serum-free DMEM, removal of probes that were liberated at 5% carbon dioxide concentration and 37° C. was carried out for 30 minutes, and the extracellular solution was exchanged again with Ringer's solution. […]
The labeled HEK 293T/Halo-RimZF-CAAX was immobilized with 4% PFA/PBS for 10 minutes, subjected to membrane permeabilization with 20 μM digitonin, and a change in fluorescence when the Ca^2+ concentration of the extracellular solution was changed was measured.
Next, Ca^2+ response characteristics of the labeled probe were evaluated by in situ calibration.

The test system of assay [4] is HEK 293T/Halo-RimZF-CAAX. Kind of assay: Ca2+ imaging on ionomycin stimulation of probe-labeled HEK 293T/Halo-RimZF-CAAX. It is filed as cell-based. Conditions: ionomycin (10 μM); local Ca2+ signal on the cell membrane. Here is the method: as §3, with “light.” for “light. The cells labeled with compound 14 and the fluorescent ligand was then exchanged with serum-free DMEM, removal of probes that were liberated at 5% carbon dioxide concentration and 37° C. was carried out for 30 minutes, and the extracellular solution was exchanged again with Ringer's solution.”
as §2
In addition, ionomycin was added to a probe-labeled HEK 293T/Halo-RimZF-CAAX in order to see the response characteristics to the Ca^2+ signal induced by the ionophore, and then changes with time of the fluorescence intensity were measured (FIG. 5). […]

The subject of assay [5] is Rat hippocampus-derived nerve cells. Kind of assay: Ca2+ imaging on electrical stimulation of probe-labeled hippocampus-derived nerve cells. It counts as cell-based. Conditions: electrical stimulation 10 times at 100 Hz; HaloTag fusion protein expressed in nerve cells. Here is the method:
as §1
A DNA fragment obtained by fusing a sequence encoding a HaloTag protein in series on the C-terminal side of the DNA sequence encoding the vesicular membrane […] transporter (VGLUT1) was subcloned into a lentiviral vector (pLenti6PW) to prepare pLenti vglut1-chalo. […]
as §2

On to `CC(=O)OCOC(=O)COc1cc(NC(=O)c2ccc3c(c2)C(=O)OC32c3cc(Cl)c(OC(C)=O)cc3Oc3cc(N4CC(C(=O)NCCOCCOCCCCCCCl)C4)c(Cl)cc32)ccc1N(CC(=O)OCOC(C)=O)CC(=O)OCOC(C)=O` (centres unmarked) [Compound 14, bis(acetoxymethyl) 2,2′-((4-(3′-acetoxy-2′,7′-dichloro-6′-(3-((2-(2-((6-chlorohexyl)oxy)ethoxy)ethyl)carbamoyl)azetidin-1-yl)-3-oxo-3H-spiro[isobenzofuran-1,9′-xanthene]-5-carboxylic acid amido)-2-(2-(acetoxymethoxy)-2-oxoethoxy)phenyl)azanediyl) diacetate], for which the “Fmax/Fmin (fluorescence intensity of Ca2+-bound vs unbound probe)” value in assay [1] is 10.8. In addition, in the assay with HEK 293T/Halo-RimZF-CAAX [2], the “localization of fluorescence after staining” value is “fluorescence localized on the cell membrane on which the HaloTag protein is expressed was observed”. In addition, the Fmax/Fmin in assay [3] is on record as 4.7. In the assay on HEK 293T/Halo-RimZF-CAAX [4], the “change in fluorescence intensity due to ionomycin stimulation” value is “increased the fluorescence intensity”. For the same molecule, the “Ca2+ signal change on electrical stimulation” value in assay [5] is “a Ca^2+ signal change corresponding to the stimulus was observed”.

The record behind these values is US10884004B2, “Taggable fluorescent probe for calcium ion detection” (The University of Tokyo, priority 2016, dated 2021).
